Experimental data from patent US9114171B2, “Racecadotril liquid compositions” (McNeil-PPC, Inc., priority 2012, dated 2015).

Key:
Type in all cases: physicochemical
[1] = Stability of Racecadotril in Water; details: room temperature and 40° C.
Protocol: (§1) For comparative purposes, the stability of racecadotril was tested at room temperature and at 40° C. Test Methods Sample Preparation: • 1. Pipet 1 mL of Racecadotril solution into a 100 mL volumetric flask (V.F.) • 2. Dilute to volume with the same buffer used in the solution preparation. • 3. Further dilute the sample solution to about 0.1 mg/mL if necessary. […] Parameters may be modified to optimize chromatography. • The assay of Racecadotril is determined by using the external standard injected. The degradation products levels are determined by % peak area relative to the Racecadotril peak. Chromatographic Conditions (European Pharmacopoeia Racecadotril Method): […]

[2] = Stability of Racecadotril in Buffer
Protocol: as §1, with “analyzed when solubilized in pH 4.5 Acetate buffer” for “tested at room temperature”, “pH 4.5 Citrate buffer (Table 4).” for “at 40° C.”

[3] = Stability of Racecadotril in Beta-Hydroxypropyl-Cyclodextrin (Beta-HPCD), Table 5
Protocol: Formulations of racecadotril in beta-hydroxypropyl-cyclodextrin were evaluated (Table 5).
as §1, with “Test” for “For comparative purposes, the stability of racecadotril was tested at room temperature and at 40° C. Test”

racecadotril present ([1]; in water, at 1 week): less than 1%
stability in water [1]: unstable after 12 hours
solubility in buffer versus water [2]: more soluble in buffer than in water
stability in buffer versus water ([2]; 40° C. and 4 weeks): more stable in a buffer than in water
Compound: CC(=O)SCC(Cc1ccccc1)C(=O)NCC(=O)OCc1ccccc1 (racemic) [Racecadotril]
solubility utilizing Beta-HPCD [3]: higher solubility was achieved utilizing the Beta-HPCD
stability in Beta-HPCD versus buffers alone ([3]; 40° C.): stability is similar to that in buffers alone
